Data taken from paper PMC12064818, “A general assay platform to study protein pharmacology using ligand-dependent structural dynamics” (Nature Communications, 2025).
“And” between values parts separate entries of the source, which are not always exact repeats. Identical values can stand only once.

Biological target: FLuc-C-NLuc (firefly luciferase) (Photinus pyralis, UniProt P08659, form not given/L550V)
Assay: SDR assay, FLuc-C-NLuc
Conditions: for SDR + 10 mM ATP / SDR No ATP: 1 nM FLuc-C-NLuc, replicates; for SDR + 10 mM ATP / SDR No ATP / 1 nM FLuc-C-NLuc + 10 mM ATP, Mean / 1 nM FLuc-C-NLuc No ATP, Mean: Log [PTC124]; for SDR assay statistics Ave RLU / SDR assay statistics S:B / SDR assay statistics S:N / SDR assay statistics Z’: 32.8 µM ligand; for 1 nM FLuc-C-NLuc + 10 mM ATP, Mean / 1 nM FLuc-C-NLuc No ATP, Mean: SDR

Chain of FLuc-C-NLuc (firefly luciferase) (P08659 2-550 L550V, form open): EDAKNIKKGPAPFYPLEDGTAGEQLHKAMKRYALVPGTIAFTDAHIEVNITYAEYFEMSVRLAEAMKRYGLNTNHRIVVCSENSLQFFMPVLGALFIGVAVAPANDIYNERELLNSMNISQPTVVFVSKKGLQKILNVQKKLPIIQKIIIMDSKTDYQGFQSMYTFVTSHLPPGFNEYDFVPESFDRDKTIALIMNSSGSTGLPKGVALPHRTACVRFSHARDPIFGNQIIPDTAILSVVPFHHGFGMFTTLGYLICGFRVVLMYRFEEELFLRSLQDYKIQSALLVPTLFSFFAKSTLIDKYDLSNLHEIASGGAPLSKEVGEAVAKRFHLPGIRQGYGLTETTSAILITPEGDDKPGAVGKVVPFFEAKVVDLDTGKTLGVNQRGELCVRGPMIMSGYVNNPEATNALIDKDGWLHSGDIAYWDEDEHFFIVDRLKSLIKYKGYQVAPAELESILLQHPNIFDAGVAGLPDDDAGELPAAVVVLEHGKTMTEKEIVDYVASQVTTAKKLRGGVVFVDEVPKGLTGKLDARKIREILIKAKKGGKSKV

## O=C(O)c1cccc(-c2noc(-c3ccccc3F)n2)c1 [PTC124, reference compound]
0 μM ATP
  pSDR50, FLuc-C-NLuc (1 nM): 5.88 ± 0.04
M -4.48
  SDR + 10 mM ATP: 7557.2 RLU and 7497.6 RLU and 7631.5 RLU and 7551.6 RLU and 7524.6 RLU and 7378.2 RLU
  SDR No ATP: 7094.5 RLU and 7036.1 RLU and 7197.7 RLU and 7251.5 RLU and 7107.6 RLU and 7010.0 RLU
  1 nM FLuc-C-NLuc + 10 mM ATP, Mean: 7523.5 RLU
  1 nM FLuc-C-NLuc No ATP, Mean: 7116.2 RLU
M -4.96
  SDR + 10 mM ATP: 8653.1 RLU and 8918.3 RLU and 8729.5 RLU and 8753.4 RLU and 8625.3 RLU and 8631.1 RLU
  SDR No ATP: 7649.4 RLU and 7690.6 RLU and 7782.9 RLU and 7784.7 RLU and 7753.8 RLU and 7789.6 RLU
  1 nM FLuc-C-NLuc + 10 mM ATP, Mean: 8718.4 RLU
  1 nM FLuc-C-NLuc No ATP, Mean: 7741.8 RLU
M -5.44
  SDR + 10 mM ATP: 9503.1 RLU and 9394.8 RLU and 9366.2 RLU and 9511.1 RLU and 9276.8 RLU and 9264.6 RLU
  SDR No ATP: 7463.4 RLU and 7521.3 RLU and 7506.8 RLU and 7660.8 RLU and 7389.5 RLU and 7591.3 RLU
  1 nM FLuc-C-NLuc + 10 mM ATP, Mean: 9386.1 RLU
  1 nM FLuc-C-NLuc No ATP, Mean: 7522.2 RLU
M -5.91
  SDR + 10 mM ATP: 9834.3 RLU and 9880.8 RLU and 9675.2 RLU and 9786.2 RLU and 9362.5 RLU and 9414.4 RLU
  SDR No ATP: 7041.2 RLU and 7015.2 RLU and 7004.0 RLU and 7050.2 RLU and 7076.1 RLU and 7039.0 RLU
  1 nM FLuc-C-NLuc + 10 mM ATP, Mean: 9658.9 RLU
  1 nM FLuc-C-NLuc No ATP, Mean: 7037.6 RLU
M -6.39
  SDR + 10 mM ATP: 9915.0 RLU and 9970.8 RLU and 10012.5 RLU and 10081.2 RLU and 9830.9 RLU and 9904.0 RLU
  SDR No ATP: 6691.1 RLU and 6782.7 RLU and 6754.8 RLU and 6847.3 RLU and 6762.8 RLU and 6799.3 RLU
  1 nM FLuc-C-NLuc + 10 mM ATP, Mean: 9952.4 RLU
  1 nM FLuc-C-NLuc No ATP, Mean: 6773.0 RLU
M -6.87
  SDR + 10 mM ATP: 10082.6 RLU and 10234.0 RLU and 10143.0 RLU and 10158.0 RLU and 9950.0 RLU and 10015.6 RLU
  SDR No ATP: 6611.5 RLU and 6294.6 RLU and 6649.4 RLU and 6762.3 RLU and 6579.8 RLU and 6635.0 RLU
  1 nM FLuc-C-NLuc + 10 mM ATP, Mean: 10097.2 RLU
  1 nM FLuc-C-NLuc No ATP, Mean: 6588.7 RLU
M -7.35
  SDR + 10 mM ATP: 10197.1 RLU and 10347.4 RLU and 10179.3 RLU and 10327.2 RLU and 10158.4 RLU and 10151.6 RLU
  SDR No ATP: 6611.5 RLU and 6675.5 RLU and 6753.6 RLU and 6721.7 RLU and 6667.7 RLU and 6659.2 RLU
  1 nM FLuc-C-NLuc + 10 mM ATP, Mean: 10226.8 RLU
  1 nM FLuc-C-NLuc No ATP, Mean: 6681.5 RLU
M -7.82
  SDR + 10 mM ATP: 10273.2 RLU and 10529.0 RLU and 10260.9 RLU and 10390.3 RLU and 10195.8 RLU and 10173.3 RLU
  SDR No ATP: 6601.3 RLU and 6794.9 RLU and 6657.3 RLU and 6777.0 RLU and 6066.9 RLU and 6627.0 RLU
  1 nM FLuc-C-NLuc + 10 mM ATP, Mean: 10303.8 RLU
  1 nM FLuc-C-NLuc No ATP, Mean: 6587.4 RLU
M -8.30
  SDR + 10 mM ATP: 10428.2 RLU and 10351.9 RLU and 10431.4 RLU and 10340.3 RLU and 10350.0 RLU and 10135.7 RLU
  SDR No ATP: 6797.1 RLU and 6778.7 RLU and 6811.3 RLU and 6783.1 RLU and 6776.8 RLU and 6755.1 RLU
M -8.78
  SDR + 10 mM ATP: 10307.0 RLU and 10240.9 RLU and 10295.8 RLU and 10255.7 RLU and 10212.3 RLU and 10156.0 RLU
  SDR No ATP: 6765.6 RLU and 6820.8 RLU and 6789.0 RLU and 6870.9 RLU and 6762.2 RLU and 6786.7 RLU
M -9.25
  SDR + 10 mM ATP: 9955.6 RLU and 10061.6 RLU and 10070.3 RLU and 10144.7 RLU and 9901.2 RLU and 9937.3 RLU
  SDR No ATP: 6778.5 RLU and 6738.4 RLU and 6784.4 RLU and 6835.7 RLU and 6812.5 RLU and 6775.6 RLU
M -9.73
  SDR + 10 mM ATP: 9060.9 RLU and 8791.4 RLU and 9269.7 RLU and 9103.3 RLU and 8979.5 RLU and 9077.2 RLU
  SDR No ATP: 6814.0 RLU and 6880.4 RLU and 6857.6 RLU and 6871.7 RLU (2×) and 6648.1 RLU
M -10.21
  SDR + 10 mM ATP: 8039.8 RLU and 7910.0 RLU and 8237.3 RLU and 8034.2 RLU and 8059.8 RLU and 8095.1 RLU
  SDR No ATP: 6863.1 RLU and 6890.7 RLU and 6909.9 RLU and 6915.4 RLU and 6885.5 RLU and 6851.9 RLU
M -10.69
  SDR + 10 mM ATP: 7243.2 RLU and 7192.1 RLU and 7498.0 RLU and 7333.4 RLU and 7436.9 RLU and 7459.7 RLU
  SDR No ATP: 6866.7 RLU and 6851.6 RLU (2×) and 6906.1 RLU and 6919.7 RLU and 6944.4 RLU
M -11.16
  SDR + 10 mM ATP: 6972.7 RLU and 6906.8 RLU (2×) and 7044.6 RLU and 7092.1 RLU and 7092.6 RLU
  SDR No ATP: 6852.5 RLU and 6810.5 RLU and 6865.3 RLU and 6827.1 RLU and 6885.6 RLU and 6853.6 RLU
M -11.64
  SDR + 10 mM ATP: 6987.2 RLU and 6840.0 RLU and 7030.1 RLU and 6788.2 RLU and 7034.1 RLU and 6802.7 RLU
  SDR No ATP: 6913.4 RLU and 6769.3 RLU and 6893.0 RLU and 6868.3 RLU and 6877.6 RLU and 6825.9 RLU
10 μM ATP
  pSDR50, FLuc-C-NLuc (1 nM): 9.95 ± 0.05
FLuc-C-NLuc (1 nM) + 10 mM ATP
  SDR assay statistics Ave RLU: 8287.4 RLU
  SDR assay statistics S:B: 1.2
  SDR assay statistics S:N: 3.4
  SDR assay statistics Z’: -0.259
FLuc-C-NLuc (1 nM) No ATP
  SDR assay statistics Ave RLU: 7850.3 RLU
  SDR assay statistics S:B: 1.2
  SDR assay statistics S:N: 2.6
  SDR assay statistics Z’: -0.605
